This is an account of results in patent US9708336B2, “Metallo-beta-lactamase inhibitors” (priority 2014, dated 2017).

Where two headings read alike, the source gives them in different places.

One test addresses IMP-1 (Serratia marcescens, UniProt P52699). The experiment in a line: biochemical. It is filed as biochemical. The settings on record: IMP-1 enzyme, CCF2-FA fluorescence assay; read-out: IMP-1 IC50.
Test [1] deals with Escherichia coli expressing NDM-1 (CLB30016). The experiment in a line: Antibiotic potentiation activity: synergistic concentration (MITC95) with imipenem, OD600 growth. The format is cell-based. The settings on record: Escherichia coli expressing NDM-1 (CLB30016), 95% growth inhibition. A digest of the protocol:
(§1)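 Spectrophotometric growth readings were taken following 22–24 h at 35 °C. Before that, organisms in 1.1× CAMHB were mixed with imipenem, used at 4 μg/ml in assay, and test compound.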

Test [2] deals with Serratia marcescens expressing IMP-1 (CL5741). The test is described as above. The format is cell-based. The note with it: Serratia marcescens expressing IMP-1 (CL5741), 95% growth inhibition. A digest of the protocol:
as §1

Test [3] concerns Klebsiella pneumoniae expressing VIM-1 (IHMA599644). The description is as above. The settings on record: Klebsiella pneumoniae expressing VIM-1 (IHMA599644), 95% growth inhibition. The format is cell-based. A digest of the protocol:
as §1

In the next test the target is NDM-1 (Klebsiella pneumoniae, UniProt C7C422). Nature of the test: biochemical. It is filed as biochemical. The settings on record: NDM-1 enzyme, CCF2-FA fluorescence assay; read-out: NDM-1 IC50.
The target in another test is VIM-1 (Pseudomonas aeruginosa (strain ATCC 15692 / DSM 22644 / CIP 104116 / JCM 14847 / LMG 12228 / 1C / PRS 101 / PAO1), UniProt A0A0F7KYQ8). Nature of the test: Enzyme activity: determination of IC50, fluorescence assay with CCF2-FA substrate (VIM-1). It is filed as biochemical. The note with it: CCF2-FA fluorescence assay.
The mark [4] stands for this setting: VIM-1 enzyme, read-out: VIM-1 IC50.

IMP-1, sequence (P52699 whole entry, looked up): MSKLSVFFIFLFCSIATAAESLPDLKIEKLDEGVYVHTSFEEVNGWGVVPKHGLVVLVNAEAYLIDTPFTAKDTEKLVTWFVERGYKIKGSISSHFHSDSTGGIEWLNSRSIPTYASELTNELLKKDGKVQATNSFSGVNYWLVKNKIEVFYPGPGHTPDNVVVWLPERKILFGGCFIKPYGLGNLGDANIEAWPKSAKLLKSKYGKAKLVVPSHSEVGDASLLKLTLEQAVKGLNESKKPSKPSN
NDM-1, sequence (C7C422 whole entry, looked up, species assumed): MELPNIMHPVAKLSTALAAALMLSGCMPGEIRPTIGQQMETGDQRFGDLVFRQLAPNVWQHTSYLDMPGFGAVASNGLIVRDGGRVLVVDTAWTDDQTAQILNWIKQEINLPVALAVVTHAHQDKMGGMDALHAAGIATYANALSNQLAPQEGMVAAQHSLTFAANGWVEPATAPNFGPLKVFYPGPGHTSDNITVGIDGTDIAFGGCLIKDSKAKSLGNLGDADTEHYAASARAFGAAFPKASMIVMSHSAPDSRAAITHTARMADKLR

For the molecule `NS(=O)(=O)c1cccc(-c2cc3cnccc3s2)c1-c1nnn[nH]1` [Example 411, 2-(1H-tetrazol-5-yl)-3-thieno[3,2-c]pyridin-2-yl-benzenesulfonamide], the IC50 (in general, the concentration that gives 50% inhibition) came out at 102 nM at IMP-1, 4.84 nM at NDM-1 and 27.8 nM on VIM-1 (setting [4]). Moreover, in test [1], the “Escherichia coli MITC95” value was found to be 0.7813 µM. Besides, in test [2], the “Serratia marcescens MITC95” value came to 3.125 µM. Further, the “Klebsiella pneumoniae MITC95” value in test [3] was 25 µM.

For the molecule `Nc1ccnc2cc(-c3cccc(S(N)(=O)=O)c3-c3nnn[nH]3)ccc12` [Example 412, 3-(4-amino-7-quinolyl)-2-(1H-tetrazol-5-yl)benzenesulfonamide], the values for the 50% inhibitory concentration (IC50) at IMP-1, at NDM-1 and on VIM-1 (setting [4]) were 1390 nM, 25.9 nM and 25.8 nM, respectively. Moreover, the “Escherichia coli MITC95” value in test [1] amounted to 0.3906 µM. Besides, in test [2], the “Serratia marcescens MITC95” value was 25 µM. The “Klebsiella pneumoniae MITC95” value in test [3] came out at 3.125 µM.

Take `NS(=O)(=O)c1cccc(-c2snc3ncccc23)c1-c1nnn[nH]1` [Example 413, 3-isothiazolo[3,4-b]pyridin-3-yl-2-(1H-tetrazol-5-yl)benzenesulfonamide]: the IC50 stood at 340 nM on IMP-1, 2.12 nM at NDM-1 and 2.08 nM at VIM-1 (setting [4]). Also, the “Escherichia coli MITC95” value in test [1] was determined as 0.5859 µM. Moreover, the “Serratia marcescens MITC95” value in test [2] amounted to 9.375 µM. Moreover, the “Klebsiella pneumoniae MITC95” value in test [3] was determined as 4.688 µM.

With `NS(=O)(=O)c1cccc(-c2snc3cccnc23)c1-c1nnn[nH]1` [Example 414, 3-isothiazolo[4,3-b]pyridin-3-yl-2-(1H-tetrazol-5-yl)benzenesulfonamide], the IC50 on IMP-1 amounted to 177 nM; at NDM-1, 6.01 nM; on VIM-1 (setting [4]), 19.9 nM. In addition, the “Escherichia coli MITC95” value in test [1] came out at 2.344 µM. In test [2], the “Serratia marcescens MITC95” value came out at 4.688 µM. Further, in test [3], the “Klebsiella pneumoniae MITC95” value came to 18.75 µM.

For `Nc1ccc(-c2cccc(S(N)(=O)=O)c2-c2nnn[nH]2)c2ccncc12` [Example 415, 3-(8-amino-5-isoquinolyl)-2-(1H-tetrazol-5-yl)benzenesulfonamide], the IC50 at IMP-1 was found to be 32.3 nM; on NDM-1, 0.58 nM; on VIM-1 (setting [4]), 1.1 nM. Further, in test [1], the “Escherichia coli MITC95” value stood at 0.5859 µM. Moreover, the “Serratia marcescens MITC95” value in test [2] stood at 1.172 µM. Further, in test [3], the “Klebsiella pneumoniae MITC95” value is 3.125 µM.

`Nc1cnc2cc(-c3cccc(S(N)(=O)=O)c3-c3nnn[nH]3)ccc2c1` [Example 416, 3-(3-amino-7-quinolyl)-2-(1H-tetrazol-5-yl)benzenesulfonamide]: the IC50 on IMP-1 amounted to 56.5 nM; at NDM-1, 2.42 nM; at VIM-1 (setting [4]), 13.7 nM. In test [1], the “Escherichia coli MITC95” value was found to be 2.344 µM. Further, the “Serratia marcescens MITC95” value in test [2] is 6.25 µM. Moreover, the “Klebsiella pneumoniae MITC95” value in test [3] is 25 µM.

Regarding `Nc1nc2ccc(-c3cccc(S(N)(=O)=O)c3-c3nnn[nH]3)cc2s1` [Example 417, 3-(2-amino-1,3-benzothiazol-6-yl)-2-(1H-tetrazol-5-yl)benzenesulfonamide], the half-maximal inhibitory concentration (IC50) at IMP-1 is 49.8 nM; on NDM-1 it was 0.76 nM; at VIM-1 (setting [4]) it was 8.53 nM. Further, the “Escherichia coli MITC95” value in test [1] is 1.953 µM. Besides, the “Serratia marcescens MITC95” value in test [2] was 2.344 µM. In test [3], the “Klebsiella pneumoniae MITC95” value turned out to be 9.375 µM.

With `Nc1cccn2c(-c3cccc(S(N)(=O)=O)c3-c3nnn[nH]3)cnc12` [Example 418, 3-(8-aminoimidazo[1,2-a]pyridin-3-yl)-2-(1H-tetrazol-5-yl)benzenesulfonamide], the IC50 on IMP-1 turned out to be 118 nM; at NDM-1, 1.18 nM; at VIM-1 (setting [4]) it was 13 nM. Besides, the “Escherichia coli MITC95” value in test [1] came to 0.3906 µM. In test [2], the “Serratia marcescens MITC95” value came out at 6.25 µM. The “Klebsiella pneumoniae MITC95” value in test [3] is 6.25 µM.

Turning to `NS(=O)(=O)c1cccc(-c2cnc3n2CCCC3)c1-c1nnn[nH]1` [Example 419, 3-(5,6,7,8-tetrahydroimidazo[1,2-a]pyridin-3-yl)-2-(1H-tetrazol-5-yl)benzenesulfonamide], the IC50 at IMP-1 is 1040 nM; on NDM-1, 51.9 nM; at VIM-1 (setting [4]) it was 469 nM. In test [1], the “Escherichia coli MITC95” value came to 0.25 µM. For the same molecule, the “Serratia marcescens MITC95” value in test [2] stood at 25 µM. For the same molecule, the “Klebsiella pneumoniae MITC95” value in test [3] came out at 25 µM.

Regarding `Nc1ncc2ccc(-c3cccc(S(N)(=O)=O)c3-c3nnn[nH]3)cc2n1` [Example 420, 3-(2-Aminoquinazolin-7-yl)-2-(1H-tetrazol-5-yl)benzenesulfonamide], the IC50 was found to be 217 nM on IMP-1; 4.74 nM on NDM-1; 30.7 nM against VIM-1 (VIM-1 IC50, VIM-1 enzyme). For the same molecule, the “Escherichia coli MITC95” value in test [1] worked out at 1.563 µM. The “Serratia marcescens MITC95” value in test [2] stood at 9.375 µM. Moreover, in test [3], the “Klebsiella pneumoniae MITC95” value came out at 18.75 µM.

For `NS(=O)(=O)c1cccc(-c2cccc3sc(Br)nc23)c1-c1nnn[nH]1` [Example 421, 3-(2-Bromobenzo[d]thiazol-4-yl)-2-(1H-tetrazol-5-yl)benzenesulfonamide], the IC50 was 18.8 nM on IMP-1, 0.291 nM at NDM-1 and 2.3 nM on VIM-1 (setting [4]). Besides, the “Escherichia coli MITC95” value in test [1] was found to be 3.125 µM. Besides, the “Serratia marcescens MITC95” value in test [2] was 25 µM. The “Klebsiella pneumoniae MITC95” value in test [3] was more than 200 µM.

Take `NS(=O)(=O)c1cccc(-c2cccc3scnc23)c1-c1nnn[nH]1` [Example 422, 3-(Benzo[d]thiazol-4-yl)-2-(1H-tetrazol-5-yl)benzenesulfonamide]: the half-maximal inhibitory concentration (IC50) amounted to 56 nM on IMP-1, 1.3 nM at NDM-1 and 22.6 nM on VIM-1 (setting [4]). For the same molecule, the “Escherichia coli MITC95” value in test [1] is 3.125 µM. For the same molecule, the “Serratia marcescens MITC95” value in test [2] was 25 µM. Besides, the “Klebsiella pneumoniae MITC95” value in test [3] amounted to 100 µM.

Turning to `Nc1nc2c(-c3ccc(C(F)(F)F)c(S(N)(=O)=O)c3-c3nnn[nH]3)cccc2s1` [Example 423, 3-(2-amino-1,3-benzothiazol-4-yl)-2-(2H-tetrazol-5-yl)-6-(trifluoromethyl)benzenesulfonamide], the results for the IC50 at IMP-1, on NDM-1 and on VIM-1 (setting [4]) were 1.29 nM, 0.378 nM and 0.711 nM, respectively. Also, the “Escherichia coli MITC95” value in test [1] amounted to 1.086 µM. Moreover, the “Serratia marcescens MITC95” value in test [2] was found to be 0.125 µM. Further, the “Klebsiella pneumoniae MITC95” value in test [3] amounted to 3.125 µM.

On to `Nc1ncc(-c2ccc(Br)c(S(N)(=O)=O)c2-c2nn[nH]n2)s1` [Example 424, 3-(2-aminothiazol-5-yl)-6-bromo-2-(2H-tetrazol-5-yl)benzenesulfonamide], for which the IC50 on IMP-1 is 80.8 nM; at NDM-1, 18.9 nM; on VIM-1 (setting [4]) it was 32.7 nM. Also, the “Escherichia coli MITC95” value in test [1] turned out to be 0.7813 µM. Besides, in test [2], the “Serratia marcescens MITC95” value worked out at 1.563 µM. The “Klebsiella pneumoniae MITC95” value in test [3] came out at 15.63 µM.

With `N=CNCc1ccc(-c2ccc(Br)c(S(N)(=O)=O)c2-c2nn[nH]n2)cc1` [Example 425, N-((4′-bromo-3′-sulfamoyl-2′-(2H-tetrazol-5-yl)-[1,1′-biphenyl]-4-yl)methyl)formimidamide], the IC50 at IMP-1 stood at 15.9 nM; on NDM-1, 13.5 nM; at VIM-1 (VIM-1 IC50, VIM-1 enzyme) it was 4.07 nM. For the same molecule, the “Escherichia coli MITC95” value in test [1] came to 0.3906 µM. In addition, the “Serratia marcescens MITC95” value in test [2] is 0.5859 µM. Besides, the “Klebsiella pneumoniae MITC95” value in test [3] came out at 1.563 µM.

As to `NS(=O)(=O)c1cccc(-c2ccc(NCCO)nc2)c1-c1nn[nH]n1` [Example 426, 3-(6-((2-hydroxyethyl)amino)pyridin-3-yl)-2-(2H-tetrazol-5-yl)benzenesulfonamide], the values for the IC50 at IMP-1, on NDM-1 and at VIM-1 (setting [4]) were 353 nM, 9.28 nM and 260 nM, respectively. The “Escherichia coli MITC95” value in test [1] amounted to 0.4063 µM. Moreover, the “Serratia marcescens MITC95” value in test [2] stood at 9.375 µM. Further, in test [3], the “Klebsiella pneumoniae MITC95” value amounted to 25 µM.

With `Nc1ccc(CCc2cccc(S(N)(=O)=O)c2-c2nn[nH]n2)cn1` [Example 427, 3-(2-(6-aminopyridin-3-yl)ethyl)-2-(2H-tetrazol-5-yl)benzenesulfonamide], the IC50 at IMP-1 was 109 nM; on NDM-1 it was 29.8 nM; at VIM-1 (setting [4]) it was 450 nM. For the same molecule, the “Escherichia coli MITC95” value in test [1] was determined as 0.25 µM. Further, in test [2], the “Serratia marcescens MITC95” value worked out at 4.688 µM. Also, the “Klebsiella pneumoniae MITC95” value in test [3] stood at 75 µM.

In the case of `Nc1nc2cccc(-c3cccc(S(N)(=O)=O)c3-c3nn[nH]n3)c2[nH]1` [Example 428, 3-(2-amino-1H-benzo[d]imidazol-7-yl)-2-(2H-tetrazol-5-yl)benzenesulfonamide], the IC50 on IMP-1 is 345 nM; on NDM-1 it was 0.683 nM; on VIM-1 (setting [4]) it was 17.3 nM. Also, the “Escherichia coli MITC95” value in test [1] came out at 0.0625 µM. For the same molecule, the “Serratia marcescens MITC95” value in test [2] stood at 6.25 µM. The “Klebsiella pneumoniae MITC95” value in test [3] is 1.531 µM.

With `Nc1nc2ccc(-c3cccc(S(N)(=O)=O)c3-c3nn[nH]n3)cc2[nH]1` [Example 429], the IC50 at IMP-1 amounted to 499 nM; at NDM-1 it was 2.58 nM; on VIM-1 (setting [4]) it was 30 nM. In addition, the “Escherichia coli MITC95” value in test [1] amounted to 0.0625 µM. Besides, the “Serratia marcescens MITC95” value in test [2] was determined as 6.25 µM. Further, in test [3], the “Klebsiella pneumoniae MITC95” value worked out at 2.344 µM.
